Reference: patent US9125930B2, “EGFR aptamer inhibitor for use in therapy and diagnosis” (CONSIGLIO NAZIONALE DELLE RICERCHE, priority 2010, dated 2015)

Legend:
[1] = tested on: A549 cells transfected with a specific EGFR shRNA; experiment: Binding on A549 cells after EGFR gene silencing; parameters: species or system human; conditions: [32P]-labeled aptamer at 100 nM, relative to scrambled aptamer
Procedure: EGFR gene silencing in NSCLC A549 cells was established by transfection of high performance short hairpin RNA (shRNA) specifically targeting EGFR (from Expression Arrest™ Human shRNA Collection, Open Biosystems, Huntsville, Ala.). Cells (3.5×10^5 cells per 6 cm plate) were grown and overlaid with the transfection mixtures containing the shRNA (6 μg) against EGFR (referred as shRNAEGFR) and Lipofectamine 2000 (Invitrogen, Carlsbad, Calif.) in Opti-MEM I reduced serum medium (Invitrogen). After 5 hours incubation, complete culture medium was added to the cells and incubation was prolonged up to 72 hs. […] For binding assays transfected cells were plated in 24 well plates after 24 hs from transfection.
Binding experiments were performed with 5′-[^32P]-labeled RNA. […]
(§1) For binding experiments on cells, 3.5×10^4 cells were plated in 24-well plates in triplicate and were incubated with CL4 42-81 aptamer the scrambled sequence used as a negative control at 100 nM concentration in 200 μl of DMEM serum free for 20 min at RT in the presence of 100 μg/ml polyinosine as a nonspecific competitor (Sigma, St. Louis, Mo.). After five washings with 500 μl DMEM, bound sequences were recovered in 300 μl of SDS 1%, and the amount of radioactivity recovered was counted.

Calu1 cells = experiment: Binding on Calu1 cells; parameters: species or system human; conditions: EGFR-positive; 100 nM
Procedure: (§2) Binding experiments were performed with 5′-[^32P]-labeled RNA. For labeling 2′-F-Py RNAs were 5′-end dephosphorylated using bacterial alcaline phosphatase (Invitrogen, Carlsbad, Calif.) before [^32P]-5′-end-labeled using T4 kinase (Invitrogen) and γ-[^32P]-ATP (6×10^3 Ci/mmol, GE Healthcare Bio-Sciences, Uppsala, Sweden) according to the supplier's instructions.
as §1

H460 cells = experiment: Binding on H460 cells; parameters: species or system human; conditions: low level of EGFR; 100 nM
Procedure: as §2, §1

A549 cells = experiment: [3H]-thymidine incorporation assay; assay type: cell-based, human; conditions: A549, 200 nM final concentration, 24 and 48 h
Procedure: A549 cells were treated for 24 h or 48 h with CL4 42-81 or CL4 scrambled. During the final 6 h, cells were pulsed with 1 μCi/ml [^3H]-thymidine (45 Ci/mmol) (Amersham-Pharmacia Biosciences) added in complete growth medium and incubated at 37° C. At the end of each pulse, cells were harvested and [^3H]-thymidine incorporation was analyzed by a Beckman LS 1701 Liquid Scintillation Counter.

A431 tumors = experiment: Tumor growth in A431 mouse xenograft; assay type: in vivo; conditions: 200 pmoles intratumoral
Procedure: Athymic nude mice (nu/nu) were maintained in a sterile environment according to guidelines for Animal Care. Mice were inoculated with either 3×10^6 (in 100 μl) in vitro propagated A431 cells subcutaneously injected into each flank. Approximately 24 non-necrotic tumors for each tumor type, of about 1 cm in diameter, were randomly divided into three groups of eight mice per treatment group as follows: group 1, no treatment; group 2, treated with scrambled RNA as a negative control (200 pmols/injection); group 3, treated with CL4 42-81 (200 pmols/injection). Compounds were injected intra-tumorally in 100-1 μl volumes three times a week for two weeks. Day 0 marks the first day of injection. The aptamers may also be administered systemically, in particular when optimized by addition of polyethylene glycol (PEG).
(§3) The volume injections are small enough to preclude the compounds being forced inside the cells due to a nonspecific high-pressure injection. Tumors were measured every 3 days with calipers in three dimensions. The following formula was used to calculate tumor volume: VT=(W×L×H)×0.5236 (W, the shortest dimension; L, the longest dimension; H, the intermediate dimension). The growth curves are plotted as the means tumor volume±s.e.m. Statistical analysis of tumor size data was conducted using a one-way ANOVA. A P-value of 0.05 or less was considered to indicate a significant difference. […]

A549 tumors = experiment: Tumor growth in A549 mouse xenograft; assay type: in vivo; conditions: day 16, with respect to CL4 scrambled control, 200 pmols intratumoral three times a week
Procedure: as §3
(§4) Athymic CD-1 nude mice (nu/nu) were housed in a highly controlled microbiological environment, thus to guarantee specific pathogen free conditions. Mice were injected subcutaneously with 3×10^6 (in 100 μl) in vitro propagated A549. Sixteen non-necrotic tumors of about 0.5 cm in diameter were randomly divided into two groups of eight mice as follows: group 1, CL4 scrambled-treated; group 2, CL4 42-81-treated. Aptamers (200 pmols/injection) were injected intra-tumorally in 100-1 μl volumes three times a week for 16 days. Tumors were measured every 2 days.

caspase-3 = experiment: Caspase-3 in A549 xenograft tumor lysates; assay type: in vivo, mouse; conditions: pooled tumor lysates
Procedure: (§5) FIG. 8. (A) A549 cells (2,000 cells/well in 24-well plates) were treated for 24 h or 48 h with CL4 42-81 or CL4 scrambled (200 nM-final concentration) and proliferation was determined by [^3H]-thymidine incorporation. Vertical bars indicate the standard deviation values. […] Day 0 marks the first day of injection. Data are shown as means±s.e.m. (n=8 tumors). (C) Three tumors per group selected randomly were excised, lysed, and the pooled lysates were immunoblotted with anti-pEGFR, anti-EGFR, anti-caspase-3, anti-cleaved caspase-8 and anti-αtubulin antibodies, as indicated. Molecular weights of indicated proteins are reported. (D) Cell lysates as in (C) were analyzed by caspase-3 fluorimetric assays.
as §4

caspase-8 = experiment: Caspase-8 in A549 xenograft tumor lysates; assay type: in vivo, mouse; conditions: pooled tumor lysates
Procedure: as §5, §4

EGFR = EGFR (Homo sapiens, UniProt P00533); experiment: Immunoblot of pEGFR in A549 xenograft tumor lysates; assay type: in vivo, mouse; parameters: from tissue; host or cells: A549 xenograft tumours excised from athymic CD-1 nude mice; conditions: pooled tumor lysates
Procedure: as §5, §4

**Q.** For “CL4 42-81: 2′-fluoropyrimidine nuclease-resistant RNA aptamer of 39 nt: 5′ GCCUUAGUAACGUGCUUUGAUGUCGAUUCGACAGGAGGC 3′ (SEQ ID No. 1) (2'-fluoro at CU, RNA at AG, backbone not given here)”, which “ability to bind to A549 cells upon decreased EGFR expression” value [1] is on record?
**A.** significantly reduced

**Q.** What about the “binding on Calu1 cells” value (Calu1 cells) of the same substance?
**A.** binds

**Q.** What about the “binding on H460 cells” value (H460 cells) of the same substance?
**A.** does not bind

**Q.** And the “[3H]-thymidine incorporation” value (A549 cells)?
**A.** completely blocks

**Q.** What about the “tumor growth from day 9 to day 15” value (A431 tumors; three times a week) of the same substance?
**A.** stopped to grow and was reduced in volume

**Q.** What about the tumor volume (A431 tumors; three times a week for two weeks) of the same substance?
**A.** pronounced reduction in tumor volume

**Q.** What about the “inhibition of tumor growth (tumor volume)” value (A549 tumors) of the same substance?
**A.** 57%

**Q.** And the “caspase-3 activation in xenograft tumors” value (caspase-3)?
**A.** activates

**Q.** And the “caspase-8 activation in xenograft tumors” value (caspase-8)?
**A.** activates

**Q.** And the “extent of EGFR tyrosine phosphorylation in xenograft tumors” value (EGFR)?
**A.** decreases
